Test results as given in patent US8871772B2, “Therapeutic methods and compounds” (Ampio Pharmaceuticals, Inc., priority 2008, dated 2014).

Legend:
Assay type in all cases: cell-based
[1] = system: STTG grade 4 astrocytoma cell line; assay: Proliferation of STTG cancer cells, Promega cell titer assay; settings: 96 hours, negative number = increase
Protocol: Assays were performed to determine the effect of Cpd. 5 (synthesis described in Example 1) on proliferation of two cancer cell lines. These two cell lines were STTG grade 4 astrocytoma cell line and AU565 breast cancer cell line. Both cell lines were obtained from American Type Culture Collection, Rockville, Md. (ATCC).
To perform the assays, a 50 mM stock solution of Cpd. 5 was prepared in DMSO and frozen at −80° C. Aliquots of the stock solution were removed and 100 μM dilutions were made in Iscove's modified Dulbecco's medium (IMDM; obtained from ATCC) supplemented with 10% fetal bovine serum (FBS) and penicillin/streptomycin solution. Controls containing equivalent amounts of DMSO to the 100 μM solution were mixed for comparative purposes. 100 μl of the resulting solutions were then added to 96 well culture plates in triplicate and placed in a 37° C. incubator with 5% CO2 to warm.
At this point, cells were removed from passage flasks using trypsin and counted using trypan blue to establish cell counts/ml and viability. For all experiments, viability of cells was greater than 95%. Solutions of 4,000 cells/100 μl were prepared in the medium from above and 100 μl of the solutions were added to each well of the plates. The plates were placed back in the incubator and incubated with the compounds for 96 hours.
Following incubation, cell proliferation was assayed by adding 20 μl Promega cell titer aqueous one reagent to each well. […] The plates were incubated at 37° C. for an additional 4-18 hours to allow the colorimetric assay to develop, and the OD of each well was determined in a microplate reader using a 530 nm filter. The OD of wells containing cell titer reagent in culture medium with no cells was subtracted from the OD of all experimental readings.
The % decrease of the total cell titer signal was determined using the following formula. […] The p values were calculated versus diluent controls.

AU565 cells = assay: Cytotoxicity on confluent AU565 monolayers, cell titer assay
Protocol: To determine whether the decrease in cell titer signal caused by Cpd. 5 was due to the inhibition of proliferation or to cytotoxicity, STTG and AU565 cells were seeded at 10,000 cells/well in 96-well plates and grown until a confluent monolayer was obtained. Under these conditions, the cells should no longer proliferate. The culture medium was IMDM supplemented with 10% FBS. After the cells reached confluence, the culture medium was removed by aspiration and replaced with fresh medium containing the test compounds (see Table 2 below). The cell cultures were incubated for an additional 24 hours in the presence of the added compounds and then the cell titer signal was assayed by adding 20 μl Promega cell titer aqueous one reagent to each well. The plates were incubated at 37° C. for an additional 2 hours to allow the colorimetric assay to develop, and the OD of each well was determined in a microplate reader using a 530 nm filter. The OD of wells containing cell titer reagent in culture medium with no cells was subtracted from the OD of all experimental readings.
The % decrease of the total cell titer signal was determined using the following formula. ((Diluent OD−Experimental OD)/Diluent OD))×100. Data are presented in Table 2 as mean % decrease of cell titer signal of three separate experiments, plus or minus standard deviation. In the mean % decrease column, a positive number means a decrease in cell titer signal, while a negative number means an increase. The p values were calculated versus diluent controls.
This experiment was repeated, except using incubations of 18 hours, instead of 24 hours, in the presence of the compounds and 4 hours, instead of 2 hours, for color development.

MMP-9 = assay: Release of MMP-9 from STTG astrocytoma cells, gelatin zymogram; settings: data not shown
[2] = system: human umbilical vein endothelial cells (HUVECs); assay: Proliferation of HUVECs, Promega cell titer assay; settings: 72 hours
Protocol: Assays were performed to determine the effect of Cpd. 5 on proliferation of human umbilical vein endothelial cells (HUVECs). Passage 4-5 HUVECs, human source lot number 13047 (obtained from Lonza) were put into the wells of a 96-well tissue culture plate at 1200 cells/well in 100 μl endothelial growth medium-2 (EGM-2) complete medium (obtained from Lonza). A 50 mM stock solution of Cpd. 5 was prepared in DMSO and frozen at −80° C. Aliquots of the stock solution were removed and dilutions containing from 50 μM to 300 μM Cpd. 5 were made in EGM-2 complete medium (Lonza). Controls containing equivalent amounts of DMSO to the 200 μM solution were mixed for comparative purposes. 100 μl of the resulting solutions were then added to the cells in the 96-well culture plates in triplicate and placed in a 37° C. incubator with 5% CO2 for 72 hours.
Following incubation, cell proliferation was assayed by adding 20 μl Promega cell titer aqueous one reagent to each well. Promega cell titer reagent is a solution containing a tetrazolium dye that is reduced by living cells to a formazan dye, and this reduction is proportional to the number of living cells present in the well. The plates were incubated at 37° C. for an additional 4 hours to allow the colorimetric assay to develop, and the OD of each well was determined in a microplate reader using a 530 nm filter. The OD of wells containing cell titer reagent in culture medium with no cells was subtracted from the OD of all experimental readings.
The % decrease of the total cell titer signal was determined using the following formula. ((Diluent OD−Experimental OD)/Diluent OD))×100. Data are presented in Table 7 as mean % decrease of cell titer signal of three separate experiments, plus or minus standard deviation. In the mean % decrease column, a positive number means a decrease in cell titer signal, while a negative number means an increase in cell titer signal. The p values were calculated versus diluent controls.

endothelial cells = assay: Endothelial cell tube formation; settings: 50 μM or 100 μM
Protocol: When endothelial cells are cultured on extracellular matrix protein gels in the presence of angiogenic signals, they arrange themselves into structures loosely resembling capillary blood vessels (“tube formation”). Cpd.

[3] = confluent AU565, 50 μM, 18 hours
[4] = confluent AU565, 50 μM, 24 hours

Row | Compound | MEAN % DECREASE of cell titer signal ([1]; 50 μM) | MEAN % DECREASE of cell titer signal (AU565 cells; confluent AU565, 10 μM, 18 hours) | MEAN % DECREASE of cell titer signal (AU565 cells; confluent AU565, 10 μM, 24 hours) | MEAN % DECREASE of cell titer signal (AU565 cells; [3]) | MEAN % DECREASE of cell titer signal (AU565 cells; [4]) | MEAN % DECREASE of cell titer signal (AU565 cells; confluent AU565, 100 μM, 18 hours) | MEAN % DECREASE of cell titer signal (AU565 cells; confluent AU565, 100 μM, 24 hours) | effect on the release of MMP-9 from the STTG cells (MMP-9) | MEAN % DECREASE of cell titer signal ([2]; 25 μM) | MEAN % DECREASE of cell titer signal ([2]; 50 μM) | MEAN % DECREASE of cell titer signal ([2]; 100 μM) | effect on tube formation (endothelial cells) | MEAN % DECREASE of cell titer signal ([1]; 20 μM)
1 | COC(=O)C(c1ccc(-c2ccccc2)cc1)C1NC(=O)CNC1=O (stereo not drawn) [Cpd. 5, biphenyl-4-yl-(3,6-dioxo-piperazin-2-yl)-acetic acid methyl ester] | 78.74% | −5.61% | −8.87% | −9.73% | −10.79% | −10.69% | −11.05% | no effect | −48.60% | −14.44% | 62.04% | no observable effect | –
2 | O=c1cc(N2CCOCC2)oc2c(-c3ccccc3)cccc12 [LY294002, reference compound] | – | – | – | 22.25% | 2.94% | – | – | – | – | – | – | – | −46.72%
